Measurements published in patent US20120010148A1, “COMBINATION THERAPIES USING NAP” (ALLON THERAPEUTICS INC., priority 2008, published 2012).
Ends that are not written are not given here.

Experiments:
[1] = system: Human SH-SY5Y neuroblastoma; test: Clozapine-induced cell death in SH-SY5Y cells, MTS assay; type: cell-based; details: clozapine 20 μg/ml, 24 hours, FIG. 1
Excerpt: Clozapine, a widely used anti psychotic drug may be associated with increased cell mortality. It was not known, however, whether NAP ([…], SEQ ID NO:2) treatment would inhibit clozapine associated neuronal death. To address this question and validate the efficiency of using a NAP-clozapine combination drug candidate, an experimental test system in cell culture was established (Heiser et al., Journal of Psychopharmacology 21(8):851-856 (2007)). Human SH-SY5Y neuroblastoma supplemented with 15% fetal calf serum (FCS) (Beit-Haemek, Israel), 1% penicillin-streptomycin, and 1% glutamine were incubated in a 5% CO2 atmosphere. Thirty-six thousand cells/well (in a 96 well plates) were plated 24 hours prior to the clozapine or NAP treatment. Clozapine (CLZ) was obtained from Sigma Chemicals (Sigma, Israel). Thirty-six thousand cells per well (in at least 6 replicate wells) were exposed to clozapine (CLZ, 20 μg/ml) or clozapine (CLZ, 20 μg/ml)+NAP or NAP alone (10^−15M-10^−10 M) for 24 hours at 37° C. Drug and control solutions were dissolved in ethanol. Measurement of metabolic activity and survival was determined by non-radioactive cell proliferation assay (MTS) (Promega, USA) and evaluated by an ELISA-reader at 490 nm wavelength.

[2] = system: STOP+/− male mice; test: Mortality under chronic clozapine with or without intranasal NAP; type: in vivo, mouse; details: clozapine 10 mg/kg IP daily, n=4
Procedure: STOP+/− male mice (6 months old in average, n=4) received daily doses of 10 mg/kg intraperitoneal injection (IP) of clozapine (5 days a week), for the duration of the experiment (5 weeks). Clozapine (10 mg/kg) was solubilized under acidic conditions (pH ˜2.0 with HCl), and the solutions titrated back to ˜pH 7.4 with NaOH. In addition, these mice received daily intranasal vehicle solution that included the following ingredients (per milliliter): 7.5 mg of NaCl, 1.7 mg of citric acid monohydrate, 3 mg of disodium phosphate dihydrate, and 0.2 mg of benzalkonium chloride solution (50%) (Alcalay et al., Neurosci Lett 361, 128-131, 2004).
A combination of clozapine with NAP experiment included an additional four mice (6 months old in average) that were injected with clozapine and administered with NAP intranasally in the vehicle delineated above (Alcalay et al., Neurosci Lett 361, 128-131, 2004). NAP or vehicle solution was administered daily to mice hand-held in a semi-supine position with nostrils facing the investigator. A pipette tip was used to administer 2.5 μl/nostril. The mouse was hand-held until the solution was totally absorbed (˜10 s).
The experiment continued for 5 weeks.

[3] = system: STOP−/− mice; details: STOP−/− schizophrenia model; cited from earlier work
[4] = system: neurons of the central nervous system; details: in vitro assays and in vivo disease models; cited from earlier work
[5] = system: MS; details: daily subcutaneous injections, 20 mg/injection; cited from earlier work

CN1CCN(C2=Nc3cc(Cl)ccc3Nc3ccccc32)CC1 [clozapine, Clozapine]
cell death [1]: about 60%
death ([2]; after 2.5 weeks of treatment): 50%
death (cumulative) ([2]; at ~4.5 weeks): 75%

C/C1=C/C[C@@H](/C(C)=C/c2csc(C)n2)OC(=O)C[C@H](O)C(C)(C)C(=O)[C@H](C)[C@@H](O)[C@@H](C)CCC1 [epothilone D]
synaptic function and behavior [3]: ameliorates synaptic function and behavior

SALLRSIPA
survival of neurons in response to various insults [4]: keep neurons of the central nervous system alive

glatiramer acetate
relapse rates, progression of disability, new MRI lesions [5]: reduce relapse rates, progression of disability, appearance of new lesions
